Laboratory results published in PubChem BioAssay (NCI).
“And” between values parts separate entries of the source, which are not always exact repeats. Equal values may be shown once.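 96-well plates; 48 h exposure; 5 concentrations. Endpoints by linear interpolation between flanking doses. Not reached: highest tested concentration assigned. GI50 marks 50% less growth. TGI is the concentration that stops growth completely.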 Where a SMILES comes first, the peptide text is derived from it. [ ]: non-standard residue; d: D form. The star is where a group is joined. ξ: configuration not given here. NMeY = CN[C@@H](Cc1ccc(O)cc1)C(=O)O; Cbz = O=C(OCc1ccccc1)*; ξA = CC(N)C(=O)O

Key:
Experiment in all cases: inhibition of tumour cell growth, NCI panel, 48 h
[1] = tested on: HCC-2998 colon
[2] = tested on: UACC-62 melanoma
[3] = tested on: MOLT-4 leukemia
[4] = tested on: UO-31 renal
[5] = tested on: HCT-15 colon
[6] = tested on: DU-145 prostate
[7] = tested on: RXF 393 renal
[8] = tested on: KM12 colon
[9] = tested on: UACC-257 melanoma

Compound: COc1cc2c3c(n(CCCNCCO)c(=O)c2cc1OC)-c1cc2c(cc1C3=O)OCO2
- GI50 [1]: 0.978 µM
- TGI [1]: 1.97 µM and 11.1 µM
- GI50 [2]: 0.0394 µM
- TGI [2]: 0.842 µM and 0.779 µM
- TGI [3]: 0.0279 µM
- GI50 [4]: 0.0183 µM and 0.181 µM
- GI50 [5]: 0.548 µM and 0.657 µM
- TGI [5]: 2.08 µM and 7.76 µM
- GI50 [6]: 0.0299 µM
- GI50 [7]: 0.139 µM and 0.268 µM
- TGI [7]: 1.26 µM and 5.75 µM
- GI50 [8]: 3.16 µM

Compound: O=C1/C(=C/c2ccccc2S)N=C(c2ccccc2)N1c1ccc2c(c1)Sc1cc(N3C(=O)/C(=C/c4ccccc4S)N=C3c3ccccc3)ccc1N2
- TGI [1]: 37.1 µM
- TGI [9]: 42.3 µM
- TGI [2]: 42.7 µM
- TGI [3]: 39.7 µM
- TGI [4]: 29.9 µM
- TGI [5]: > 100 µM
- TGI [6]: 40.4 µM
- TGI [8]: > 100 µM

Compound: O=C(Nc1cccc2nsnc12)c1cc2c(cc1Cl)Sc1nccn1S2(=O)=O
- TGI [1]: 11.7 µM
- TGI [9]: 3.49 µM
- TGI [2]: 17.6 µM
- TGI [3]: > 30.7 µM
- TGI [4]: 4.41 µM
- TGI [5]: 25.6 µM
- GI50 [6]: 1.74 µM
- TGI [6]: 3.17 µM
- TGI [7]: 18 µM
- TGI [8]: 4.65 µM

Compound: O=C(Cn1c2ccc(Br)cc2c2nc3ccccc3nc21)NC1CCCCC1
- TGI [1]: > 100 µM
- TGI [9]: > 100 µM
- TGI [2]: > 100 µM
- TGI [3]: > 100 µM
- TGI [4]: > 100 µM
- TGI [5]: > 100 µM
- TGI [6]: > 100 µM
- TGI [7]: > 100 µM
- TGI [8]: > 100 µM

Compound: O=C(C[C@@H]1NCCC[C@H]1O)Cn1cnc2cc(Br)c(Cl)cc2c1=O
- TGI [1]: 0.352 µM
- TGI [3]: > 100 µM
- TGI [4]: 0.422 µM
- TGI [5]: 0.403 µM
- TGI [6]: 0.0919 µM
- TGI [7]: 0.0814 µM
- TGI [8]: 0.101 µM

Compound: COc1ccc(C[C@@H](C(=O)NCC(N)=O)N(C)C(=O)[C@@H]2CCCN2C(=O)[C@H](CC(C)C)NC(=O)C(C)NC(=O)OCc2ccccc2)cc1 (stereo partly drawn) (Cbz-[ξA]LP[NMeY](Me)G-NH2)
- TGI [1]: > 100 µM
- TGI [9]: > 100 µM
- TGI [2]: > 100 µM
- TGI [3]: > 100 µM
- TGI [4]: > 100 µM
- TGI [5]: > 100 µM
- TGI [6]: > 100 µM
- TGI [7]: > 100 µM
- TGI [8]: > 100 µM

Compound: O=C1CCSSCCC(=O)Nc2ccccc2N1
- TGI [9]: > 100 µM
- TGI [2]: > 100 µM
- TGI [3]: > 100 µM
- TGI [4]: > 100 µM
- TGI [5]: > 100 µM
- TGI [6]: > 100 µM
- TGI [7]: > 100 µM
- TGI [8]: > 100 µM

Compound: COc1ccc(/C=N/Nc2[nH]c(=S)nc3[nH]ncc23)cc1
- TGI [1]: > 100 µM
- TGI [9]: > 100 µM
- TGI [2]: > 100 µM
- TGI [3]: > 100 µM
- TGI [4]: > 100 µM
- TGI [5]: > 100 µM
- TGI [6]: > 100 µM
- TGI [7]: > 100 µM
- TGI [8]: > 100 µM

Compound: O=C1C/C(=C\O)C(=O)c2ccccc2N1
- TGI [1]: > 100 µM
- TGI [9]: > 100 µM
- TGI [2]: > 100 µM
- TGI [3]: > 100 µM
- TGI [4]: > 100 µM
- TGI [5]: > 100 µM
- TGI [6]: > 100 µM
- TGI [7]: > 100 µM
- TGI [8]: > 100 µM

Compound: CN(C)c1ccc(-c2nc(-c3cc4c(ccc5ccccc54)oc3=O)cs2)cc1
- TGI [1]: > 100 µM
- TGI [9]: > 100 µM
- TGI [2]: > 100 µM
- TGI [3]: > 100 µM
- TGI [4]: > 100 µM
- TGI [5]: > 100 µM
- TGI [6]: > 100 µM
- TGI [7]: > 100 µM
- TGI [8]: > 100 µM

Compound: CC(=O)N(C(C)=O)n1c(Cc2ccc(Cl)cc2)nn(C(C)=O)c1=O
- TGI [1]: > 100 µM
- TGI [2]: > 100 µM
- TGI [3]: > 100 µM
- TGI [4]: > 100 µM
- TGI [5]: > 100 µM
- TGI [6]: > 100 µM
- TGI [7]: > 100 µM
- TGI [8]: > 100 µM
